Measurements as given in US20250114460A1, “NOVEL PLK1 DEGRADATION INDUCING COMPOUND” (UPPTHERA, INC., priority 2021, published 2025).

Target: T1, PLK1 (Homo sapiens, UniProt P53350)
T1 construct: endogenous in cells; host or cells: HeLa LgBit (Plk1-HiBit KI): HeLa stably expressing LgBit, with a CRISPR/Cas9 knock-in of HiBit at the endogenous PLK1 locus
Assay: Luciferase assay for PLK1 in HeLa LgBit (Plk1-HiBit KI) cell line
Type: cell-based
Settings: 300 nM compound, luminescence after 9 hours
Method: 2. Luciferase Assay for PLK1
(1) Preparation and Culture of HeLa LgBit (Plk1-HiBit KI) Cell Line
A HeLa cell line in which the LgBit vector was transfected and expressed stably was prepared. Then, after constructing gRNA and donor to express the HiBit amino acid sequence behind the C-terminal of the Plk1 gene, which was inherent in the cell, it was inserted into the cell together with a vector capable of expressing CRISPR/Cas9. Only the cells in which the insertion was completed and knock-in had progressed were selected, sub-cultured and used.
(2) Treatment of Compounds of the Present Invention and Method of Luciferase Assay
In the case of HeLa LgBit (Plk1-HiBit KI), the compounds were treated after being released after thymidine block, and the process was as follows. Thymidine (Sigma-Aldrich Cat. No. T9250-5G) was completely dissolved in DW and used in the experiment. For thymidine block, the products were treated with 2 mM of thymidine and then incubated for 24 hours. For release and chemical treatment, the medium was suctioned and washed with 1×PBS. TrypLE™ was added and incubated in 37° C. CO2 incubator for 5 min. Cells neutralized by adding complete media were counted through a counter. For each well of a 96-well culture plate (SPL), 3.3×10^4 cells and a total medium volume of 150 μL were seeded and incubated in a CO2 incubator.
Each cell line was incubated in a CO2 incubator for 18 hours, and Endurazine was added to each well to make up 4% of the total volume. After adding the compound of the present invention in a 96-well white plate (SPL) to a concentration of 300 nM, the wavelength of the plate reader (BMG Labtech, CLARIOstar Plus) was set to […], and then the luminescence was tracked in real time.
In Table 2, Activity represents the ratio of the luminescense value of each Exemplary Compound treatment group to DMSO treatment group (+++: <0.3, ++<0.6, +<0.7).

T1 sequence (P53350 whole entry): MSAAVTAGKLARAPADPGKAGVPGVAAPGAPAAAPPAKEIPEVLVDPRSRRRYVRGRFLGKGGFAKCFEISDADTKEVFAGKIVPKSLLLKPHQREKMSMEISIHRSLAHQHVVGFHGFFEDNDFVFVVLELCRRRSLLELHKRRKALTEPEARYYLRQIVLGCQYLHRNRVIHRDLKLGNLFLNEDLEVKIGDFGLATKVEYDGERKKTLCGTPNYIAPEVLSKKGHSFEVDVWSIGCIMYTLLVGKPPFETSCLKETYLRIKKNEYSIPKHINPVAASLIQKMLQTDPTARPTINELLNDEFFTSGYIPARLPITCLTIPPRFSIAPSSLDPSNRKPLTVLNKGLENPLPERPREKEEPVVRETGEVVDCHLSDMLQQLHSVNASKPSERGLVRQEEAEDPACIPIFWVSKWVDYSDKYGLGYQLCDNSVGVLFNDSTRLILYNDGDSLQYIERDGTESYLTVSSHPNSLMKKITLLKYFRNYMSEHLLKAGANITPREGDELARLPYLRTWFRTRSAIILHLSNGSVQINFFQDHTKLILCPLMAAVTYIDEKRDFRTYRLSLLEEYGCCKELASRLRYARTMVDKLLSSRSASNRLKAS

| SMILES | Activity: ratio of the luminescense value of each Exemplary Compound treatment group to DMSO treatment group |
| --- | --- |
| COc1cc(C(=O)N2CCC(CN3CCN(c4cccc5c4C(=O)N(C4CCC(=O)NC4=O)C5=O)CC3)CC2)ccc1Nc1ncc2c(n1)N(C1CCCC1)CC(F)(F)C(=O)N2C (stereo not drawn) [Compound 93, 4-(4-((1-(4-((9-cyclopentyl-7,7-difluoro-5-methyl-6-oxo-6,7,8,9-tetrahydro-5H-pyrimido[4,5-b][1,4]diazepin-2-yl)amino)-3-methoxybenzoyl)piperidin-4-yl)methyl)piperazin-1-yl)-2-(2,6-dioxopiperidin-3-yl)isoindoline-1,3-dione] | ++ (++<0.6) |
| COc1cc(C(=O)N2CCC(CCCN3CCN(c4cccc5c4C(=O)N(C4CCC(=O)NC4=O)C5=O)CC3)CC2)ccc1Nc1ncc2c(n1)N(C1CCCC1)CC(F)(F)C(=O)N2C (stereo not drawn) [Compound 95, 4-(4-(3-(1-(4-((9-cyclopentyl-7,7-difluoro-5-methyl-6-oxo-6,7,8,9-tetrahydro-5H-pyrimido[4,5-b][1,4]diazepin-2-yl)amino)-3-methoxybenzoyl)piperidin-4-yl)propyl)piperazin-1-yl)-2-(2,6-dioxopiperidin-3-yl)isoindoline-1,3-dione] | ++ (++<0.6) |
| COc1cc(C(=O)N2CCC(CCCCN3CCN(c4cccc5c4C(=O)N(C4CCC(=O)NC4=O)C5=O)CC3)CC2)ccc1Nc1ncc2c(n1)N(C1CCCC1)CC(F)(F)C(=O)N2C (stereo not drawn) [Compound 96, 4-(4-(4-(1-(4-((9-cyclopentyl-7,7-difluoro-5-methyl-6-oxo-6,7,8,9-tetrahydro-5H-pyrimido[4,5-b][1,4]diazepin-2-yl)amino)-3-methoxybenzoyl)piperidin-4-yl)butyl)piperazin-1-yl)-2-(2,6-dioxopiperidin-3-yl)isoindoline-1,3-dione] | ++ (++<0.6) |
| COc1cc(C(=O)N2CCC(CCCCN3CCN(c4ccc5c(c4)C(=O)N(C4CCC(=O)NC4=O)C5=O)CC3)CC2)ccc1Nc1ncc2c(n1)N(C1CCCC1)CC(F)(F)C(=O)N2C (stereo not drawn) [Compound 100, 5-(4-(4-(1-(4-((9-cyclopentyl-7,7-difluoro-5-methyl-6-oxo-6,7,8,9-tetrahydro-5H-pyrimido[4,5-b][1,4]diazepin-2-yl)amino)-3-methoxybenzoyl)piperidin-4-yl)butyl)piperazin-1-yl)-2-(2,6-dioxopiperidin-3-yl)isoindoline-1,3-dione] | ++ (++<0.6) |
| COc1cc(C(=O)N2CCC(CN3CCN(c4cc5c(cc4F)C(=O)N(C4CCC(=O)NC4=O)C5=O)CC3)CC2)ccc1Nc1ncc2c(n1)N(C1CCCC1)CC(F)(F)C(=O)N2C (stereo not drawn) [Compound 101, 5-(4-((1-(4-((9-cyclopentyl-7,7-difluoro-5-methyl-6-oxo-6,7,8,9-tetrahydro-5H-pyrimido[4,5-b][1,4]diazepin-2-yl)amino)-3-methoxybenzoyl)piperidin-4-yl)methyl)piperazin-1-yl)-2-(2,6-dioxopiperidin-3-yl)-6-fluoroisoindoline-1,3-dione] | ++ (++<0.6) |
| COc1cc(C(=O)NC2CC(N(C)CC3CCN(c4ccc5c(c4)C(=O)N(C4CCC(=O)NC4=O)C5=O)CC3)C2)ccc1Nc1ncc2c(n1)N(C1CCCC1)CC(F)(F)C(=O)N2C (stereo not drawn) [Compound 104, 4-((9-cyclopentyl-7,7-difluoro-5-methyl-6-oxo-6,7,8,9-tetrahydro-5H-pyrimido[4,5-b][1,4]diazepin-2-yl)amino)-N-(3-(((1-(2-(2,6-dioxopiperidin-3-yl)-1,3-dioxoisoindolin-5-yl)piperidin-4-yl)methyl)(methyl)amino)cyclobutyl)-3-methoxybenzamide] | ++ (++<0.6) |
| COc1cc(C(=O)NC2CC(N(C)CC3CCN(c4cccc5c4C(=O)N(C4CCC(=O)NC4=O)C5=O)CC3)C2)ccc1Nc1ncc2c(n1)N(C1CCCC1)CC(F)(F)C(=O)N2C (stereo not drawn) [Compound 105, 4-((9-cyclopentyl-7,7-difluoro-5-methyl-6-oxo-6,7,8,9-tetrahydro-5H-pyrimido[4,5-b][1,4]diazepin-2-yl)amino)-N-(3-(((1-(2-(2,6-dioxopiperidin-3-yl)-1,3-dioxoisoindolin-4-yl)piperidin-4-yl)methyl)(methyl)amino)cyclobutyl)-3-methoxybenzamide] | ++ (++<0.6) |
| COc1cc(N2CCC(CN3CCN(c4ccc5c(c4)C(=O)N(C4CCC(=O)NC4=O)C5=O)CC3)CC2)c(F)cc1Nc1ncc2c(n1)N(C1CCCC1)CC(F)(F)C(=O)N2C (stereo not drawn) [Compound 111, 5-(4-((1-(4-((9-cyclopentyl-7,7-difluoro-5-methyl-6-oxo-6,7,8,9-tetrahydro-5H-pyrimido[4,5-b][1,4]diazepin-2-yl)amino)-2-fluoro-5-methoxyphenyl)piperidin-4-yl)methyl)piperazin-1-yl)-2-(2,6-dioxopiperidin-3-yl)isoindoline-1,3-dione] | + (+<0.7) |
| COc1cc(N2CCC(CCN3CCN(c4ccc5c(c4)C(=O)N(C4CCC(=O)NC4=O)C5=O)CC3)CC2)c(F)cc1Nc1ncc2c(n1)N(C1CCCC1)CC(F)(F)C(=O)N2C (stereo not drawn) [Compound 112, 5-(4-(2-(1-(4-((9-cyclopentyl-7,7-difluoro-5-methyl-6-oxo-6,7,8,9-tetrahydro-5H-pyrimido[4,5-b][1,4]diazepin-2-yl)amino)-2-fluoro-5-methoxyphenyl)piperidin-4-yl)ethyl)piperazin-1-yl)-2-(2,6-dioxopiperidin-3-yl)isoindoline-1,3-dione] | + (+<0.7) |
| COc1cc(C(=O)N[C@H]2CC[C@H](OC3CCN(c4ccc5c(c4)C(=O)N(C4CCC(=O)NC4=O)C5=O)CC3)CC2)c(F)cc1Nc1ncc2c(n1)N(C1CCCC1)CC(F)(F)C(=O)N2C (stereo partly drawn) [Compound 116, 4-((9-cyclopentyl-7,7-difluoro-5-methyl-6-oxo-6,7,8,9-tetrahydro-5H-pyrimido[4,5-b][1,4]diazepin-2-yl)amino)-N-((1r,4r)-4-((1-(2-(2,6-dioxopiperidin-3-yl)-1,3-dioxoisoindolin-5-yl)piperidin-4-yl)oxy)cyclohexyl)-2-fluoro-5-methoxybenzamide] | ++ (++<0.6) |
| COc1cc(C(=O)NC2CCCN(CC3CCN(c4cccc5c4C(=O)N(C4CCC(=O)NC4=O)C5=O)CC3)C2)ccc1Nc1ncc2c(n1)N(C1CCCC1)CC(F)(F)C(=O)N2C (stereo not drawn) [Compound 126, 4-((9-cyclopentyl-7,7-difluoro-5-methyl-6-oxo-6,7,8,9-tetrahydro-5H-pyrimido[4,5-b][1,4]diazepin-2-yl)amino)-N-(1-((1-(2-(2,6-dioxopiperidin-3-yl)-1,3-dioxoisoindolin-4-yl)piperidin-4-yl)methyl)piperidin-3-yl)-3-methoxybenzamide] | + (+<0.7) |
| COc1cc(C(=O)Nc2ccc(OCCN3CCN(c4cccc5c4C(=O)N(C4CCC(=O)NC4=O)C5=O)CC3)cc2)c(F)cc1Nc1ncc2c(n1)N(C1CCCC1)CC(F)(F)C(=O)N2C (stereo not drawn) [Compound 141, 4-((9-cyclopentyl-7,7-difluoro-5-methyl-6-oxo-6,7,8,9-tetrahydro-5H-pyrimido[4,5-b][1,4]diazepin-2-yl)amino)-N-(4-(2-(4-(2-(2,6-dioxopiperidin-3-yl)-1,3-dioxoisoindolin-4-yl)piperazin-1-yl)ethoxy)phenyl)-2-fluoro-5-methoxybenzamide] | ++ (++<0.6) |
